Test results: US6391584B1, “Expression-cloning method for identifying target proteins for eukaryotic tyrosine kinases and novel target proteins” (New York University Medical Center, priority 1991, dated 2002)

B1: phosphorylated PLC-γ: PLC-γ from 3T-P1 cell lysate phosphorylated by the EGF receptor after addition of ATP (protein, UniProt Q62077 2-1302, looked up)
1-phosphatidylinositol …: AGVATPCANGCGPGAPSEAEVLHLCRSLEVGTVMTLFYSKKSQRPERKTFQVKLETRQITWSRGADKIEGSIDIREIKEIRPGKTSRDFDRYQEDPAFRPDQSHCFVILYGMEFRLKTLSLQATSEDEVNMWIKGLTWLMEDTLQAATPLQIERWLRKQFYSVDRNREDRISAKDLKNMLSQVNYRVPNMRFLRERLTDLEQRSGDITYGQFAQLYRSLMYSAQKTMDLPFLETNALRTGERPEHCQVSLSEFQQFLLEYQGELWAVDRLQVQEFMLSFLRDPLREIEEPYFFLDELVTFLFSKENSVWNSQLDAVCPDTMNNPLSHYWISSSHNTYLTGDQFSSESSLEAYARCLRMGCRCIELDCWDGPDGMPVIYHGHTLTTKIKFSDVLHTIKEHAFVASEYPVILSIEDHCSIAQQRNMAQHFRKVLGDTLLTKPVDIAADGLPSPNQLRRKILIKHKKLAEGSAYEEVPTSVMYSENDISNSIKNGILYLEDPVNHEWYPHYFVLTSSKIYYSEETSSDQGNEDEEEPKEASSSTELHSSEKWFHGKLGAGRDGRHIAERLLTEYCIETGAPDGSFLVRESETFVGDYTLSFWRNGKVQHCRIHSRQDAGTPKFFLTDNLVFDSLYDLITHYQQVPLRCNEFEMRLSEPVPQTNAHESKEWYHASLTRAQAEHMLMRVPRDGAFLVRKRNEPNSYAISFRAEGKIKHCRVQQEGQTVMLGNSEFDSLVDLISYYEKHPLYRKMKLRYPINEEALEKIGTAEPDYGALYEGRNPGFYVEANPMPTFKCAVKALFDYKAQREDELTFTKSAIIQNVEKQDGGWWRGDYGGKKQLWFPSNYVEEMINPAVLEPEREHLDENSPLGDLLRGVLDVPACQIAIRPEGKNNRLFVFSISMPSVAQWSLDVAADSQEELQDWVKKIREVAQTADARLTEGKMMERRKKIALELSELVVYCRPVPFDEEKIGTERACYRDMSSFPETKAEKYVNKAKGKKFLQYNRLQLSRIYPKGQRLDSSNYDPLPMWICGSQLVALNFQTPDKPMQMNQALFMAGGHCGYVLQPSTMRDEAFDPFDKSSLRGLEPCVICIEVLGARHLPKNGRGIVCPFVEIEVAGAEYDSTKQKTEFVVDNGLNPVWPAKPFHFQISNPEFAFLRFVVYEEDMFSDQNFLAQATFPVKGLKTGYRAVPLKNNYSEDLELASLLIKIDIFPAKENGDLSPFSGISLRERASDASSQLFHVRAREGSFEARYQQPFEDFRISQEHLADHFDSRERSTSDGPSSATNLIEDPLHDKLWKCSL
modifications: tyrosine phosphorylated by EGF receptor
notes: PLC-γ from 3T-P1 cell lysate phosphorylated by the EGF receptor after addition of ATP

Assays:
[1] = test system: GRB2 phosphorylation in HER14 cells; assay: GRB2 phosphorylation in (32P) orthophosphate-labelled, EGF stimulated HER14 cells; assay type: cell-based; conditions: vanadate (200 μM) at 37° C. for 20 min prior to the addition of EGF
Procedure: Labeling cells with (^32P)-orthophosphate were carried out as previously described (Li et al., Mol. Biol. Cell 2:641-649, 1991). Briefly, confluent HER14 cells starved for 16 hrs in 1% FCS/DMEM were incubated for two hours in Pi-free media, and labeled for two hours in Pi-free media, dialyzed FBS, 1 mCi/ml orthophosphate (carrier free, 314.5-337.5 TBq/mmole, purchased form NEN, Wilmington, Del.) at 37° C. Where appropriate, cells were incubated with vanadate (200 μM) at 37° C. for the last 20 minutes of cell labeling. Cells were then stimulated for two minutes with EGF (250 ng/ml) or PDGF (50 ng/ml), rapidly washed 2 times with ice cold phosphate-buffered saline (PBS), and solubilized immediately in lysis buffer (10 mM Tris-Cl pH 7.6, 50 mM NaCl, […] sodium pyrophosphate, 50 mM sodium fluoride, 100 μM sodium orthovanadate, 5 μM ZnCl2, 1 mM PMSF and 0.5% Triton-X-100). […]
To determine if the failure to detect tyrosine phosphorylated GRB2 was due to the rapid dephosphorylation by a protein tyrosine phosphatase, a potent tyrosine phosphatase inhibitor, vanadate, was tested for its effects upon GRB2 phosphorylation. (^32p) orthophosphate-labelled cells were incubated with or without vanadate at 37° C. for 20 min prior to the addition of EGF, and GRB2 phosphorylation was assessed as described above.

EGFR = molecular target: T1, EGFR (Homo sapiens, UniProt P00533); assay: Binding of PLC-γ to immunoprecipitated, autophosphorylated full length EGFR; fraction remaining bound after washes; conditions: Mean+/−SEM, n=4; anti PLC-γ blot with (125I)Protein A, bands quantitated in a γ counter
T1 construct: Full length EGFR was immunoprecipitated with Mab108, and allowed to autophosphorylate; expressed in transfected cells; host or cells: NIH-3T3 cells transfected with wild-type EGFR (HER14)
Procedure: FIG. 11 is a gel pattern showing that phosphorylation of PLC-γ reduces its binding to the EGF receptor. Full length EGFR was immunoprecipitated with Mab108, and allowed to autophosphorylate. Lysate from PLC-γ overexpressing 3T-P1 cells was added and mixed for 90 min at 4° C. After binding, ATP was added to one half of the samples allowing the PLC-γ molecules to be phosphorylated by the EGF receptor. SDS-PAGE sample buffer-was then added to one half of the EGFR-PLC-γ complexes (NO WASH, left panel) and directly loaded onto the 6% gel. The other half was washed three times with HNTG and then loaded on the gel (WASH, right panel. After running duplicate samples on SDS-PAGE, the proteins were transferred to nitrocellulose and probed with anti PLC-γ and (^125I)Protein A. The bands were subsequently cut from the nitrocellulose and quantitated in a γ counter. After three washes with HNTG, 50+/−5% (Mean+/−SEM, n=4) of the non-phosphorylated PLC-γ remained bound to the EGFR while only 22+/−4% of the phosphorylated PLC-γ remained (exposure time: 12 h).
The techniques used are described in several references from the present inventors, laboratory (Margolis, B. L. et al., J. Biol. Chem. 264: 10667-10671 (1989); Cell 57:1101-1107 (1989)). […]

| Molecule | effect on GRB2 phosphorylation [1] | PLC-γ remaining bound to the EGFR after three washes with HNTG (EGFR) |
| --- | --- | --- |
| [O]=[V]([O-])([O-])[O-] [Vanadate, vanadate] | did not result in detectable GRB2 phosphorylation | – |
| B1 | – | 22+/−4% |
